Reference: US12186330B2, “Compositions for improving cell viability and methods of use thereof” (Amylyx Pharmaceuticals Inc., priority 2013, dated 2025)
Where “and” joins values, the source holds several entries; their conditions need not be identical. Identical values can stand only once.

Experiments:
[1] = tested on: rat cortical neuron culture; test: Cell death by LDH release after hydrogen peroxide exposure, peroxide exposure neuronal cell model; type: cell-based; conditions: for Cell Death Evaluated By LDH Following H2O2 Exposure, Average (%): compounds added 24 h before and for 24 h after, TUDCA 100 uM, 4-PBA 1 mM, DFX 100 uM, n=6, No Treatment = 0%; for protection against cell death after peroxide exposure (FIG. 2, significance): LDH, H2O2 exposure, rat cortical neuron culture
Method: (§1) Cortical mixed cultures were prepared from E18 Wistar rat embryos (Laboratory Animal Center, Kuopio, Finland). The cortices were dissected out and the tissue was cut to small pieces. The cells were separated by 15-min incubation with DNase and papain. The cells were collected by centrifugation (1500 rpm, 5 min). The tissue was triturated with a pipette and the cells were plated (3×10^5 cells/cm^2) on poly-L-lysine coated 48 wells in MEM supplemented with 2 g/l glucose, 2 mM glutamine, 0.1 μg/ml gentamicin, and 10% heat-inactivated horse serum (HS-HI) and […] bovine serum (FBS-HI). After three days in vitro, medium containing MEM with supplements and 5% both sera was changed to the cells. On day 6 in vitro, the unwanted cell division was inhibited by adding cytosine arabinoside (10 μM final concentration) for 24 h. The cultures were refed with MEM with supplements and 5% HS-HI before experiments.
(§2) The wells in good shape were chosen for experiment on day 10 in vitro. Test compounds were diluted in MEM with supplements and 5% HS-HI. 24 h later, 300 μM NMDA for 24 h was used as a control for total neuronal death, and H2O2 for 1 h was used to induce approximately 30-60% cell death. DFX (100 μM) was used as a potential positive control for inhibition of H2O2-induced cell death. Wells treated with medium only served as 0-control. Test compounds were pipetted to the cells 24 h before adding H2O2. After 60 min, the medium was removed and media containing the compounds was pipetted to the wells for 24 h.
After 24 h the culture media of all wells was collected and possible cell debris was removed by centrifugation (13 000 rpm, 3 min). A-100-μl aliquot was pipetted into a micro titer plate as duplicates, and equal amount of LDH reagent was pipetted to the wells. The absorbance at 340 nm was measured immediately using a 3-min kinetic measurement protocol in Multiskan Ascent ELISA reader (Thermo, Finland). The change in absorbance/min was determined, which is directly proportional to the released LDH (=cell death).
(§3) The number of wells per compound concentration used was 6 (n=6). One (1) concentration of 100 μM TUDCA and 1 mM 4-PBA separately and together were studied. Statistical analysis were calculated on Microsoft excel. The values were analyzed two-tailed, equal variance t-tests comparing all conditions to all other conditions.

[2] = tested on: rat cortical neuron culture; test: Cell viability by PrestoBlue after hydrogen peroxide exposure, peroxide exposure neuronal cell model; type: cell-based; conditions: for protection of cell viability against peroxide exposure (FIG. 1, significance): PrestoBlue, H2O2 exposure, rat cortical neuron culture
Method: as §1, §2
After the cell culture medium was collected for LDH measurement, 100 μl PrestoBlue solution (1:10 dilution of PrestoBlue reagent (Invitrogen, # A13261, lot 915815C) in culture medium) was added to the wells for 1 h incubation at +37° C. CO2 incubator. Fluorescence at 560 nm excitation/615 nm emission was measured using Victor fluororeader (PerkinElmer).
as §3

[3] = H2O2 40 uM for 1 h, compounds added 24 h before and for 24 h after, TUDCA 100 uM, 4-PBA 1 mM, DFX 100 uM, n=6, No Treatment = 100%
[4] = Rattus norvegicus, Cortical neurone, H2O2 40 uM for 1 h, compounds added 24 h before and for 24 h after, TUDCA 100 uM, 4-PBA 1 mM, DFX 100 uM, n=6, No Treatment = 100%, read-out: Cell Viability Evaluated By PrestoBlue Following H2O2 Exposure, Average (%)

| Compound | Cell Death Evaluated By LDH Following H2O2 Exposure, Average (%) ([1]; H2O2 40 uM for 1 h) | protection against cell death after peroxide exposure (FIG. 2, significance) [1] | Cell Viability Evaluated By PrestoBlue Following H2O2 Exposure, Average (%) [2, 3] [%] | protection of cell viability against peroxide exposure (FIG. 1, significance) [2] | viability at 1000 µM [2, 4] [%] | Cell Death Evaluated By LDH, Average (%), H2O2 exposure alone ([1]; H2O2 40 uM for 1 h, no test compound (the text's 'control')) [%] | viability at 40 µM ([2]; Rattus norvegicus, Cortical neurone, 1 h, H2O2 40 uM for 1 h, no test compound (the text's 'control'), read-out: Cell Viability Evaluated By PrestoBlue, Average (%), H2O2 exposure alone) [%] | Cell Death Evaluated By LDH, Average (%), NMDA negative control ([1]; NMDA 300 uM for 24 h, control for total neuronal death) [%] | viability at 100 µM [2, 4] [%] |
| --- | --- | --- | --- | --- | --- | --- | --- | --- | --- |
| O=C(O)CCCc1ccccc1 [4-PBA, 4-phenylbutyric acid] | 46.5% and 46.47% | does not provide significant protection | 72.20 | does not provide significant protection | 72 | – | – | – | – |
| OO [H2O2, hydrogen peroxide] | – | – | – | – | – | 62.48 | 48.6 | – | – |
| CN[C@H](CC(=O)O)C(=O)O [NMDA] | – | – | – | – | – | – | – | 100 | – |
| C[C@H](CCC(=O)NCCS(=O)(=O)O)[C@H]1CC[C@H]2[C@@H]3[C@@H](O)C[C@@H]4C[C@H](O)CC[C@]4(C)[C@H]3CC[C@]12C [TUDCA, tauroursodeoxycholic acid] | 60.4% and 60.37% | does not provide significant protection | 58.59 | does not provide significant protection | – | – | – | – | 59 |
